Test results published in patent US12138256B2, “Treatment of cardiopulmonary disorders” (Bayer Aktiengesellschaft, priority 2021, dated 2024).

Tested on: sGC (cGMP)
Test: Phase I, healthy male subjects, 7 days once daily inhalation: cGMP in blood samples (C-4.1)
Type: in vivo, human
Method: Healthy White male subjects, aged 18 to 45 years and with a body mass index (BMI) above/equal 18.5 and below/equal 29.9 kg/m2 were treated in a clinical pharmacological phase I study on seven days with inhaled once daily doses of 480 μg or 1000 μg or 2000 μg (2 capsules of 1000 μg) (nominal dose) of dry powder formulations of example 2 or Placebo. The subjects inhaled the drug powder from capsules (see under D-1, e.g. tables 22 and 23) inserted into a handheld inhalation device by one deep inhalative breath. The dry powder formulation of the drug is dispersed into the airstream and fine particles are transported into the deep parts of the lung where it is intended to cause a vasodilation of the blood vessels in PH patients for a substantial reduction of increased blood pressure in the central pulmonary blood vessels in PAH patients or other subtypes of PH. This effect cannot be shown in subjects with healthy lungs. In addition inhaled drug causes a dilation of the bronchial airways and thus also improves disease states of lung diseases in PH patients with pathological bronchoconstriction. This effect was measured via bodyplethysmography as reduction of Specific Airway Resistance in healthy subjects. After the deep inhalative breath the subjects hold breath for 2 seconds, so that the dry powder drug condenses from the airstream onto the surface of the deeper lung areas where it is deposited close to its site of intended pharmacological action. The drug dissolutes over the day and equilibrates the lung via lining fluid.
Drug activity in healthy men was controlled in the healthy subjects by analysing blood samples for cGMP, the immediate product of sGC pharmacological activation prior after the first and after the last drug inhalation of the 7 days treatment in comparison to measurements on the pretreatment day for all doses.
This prolonged activity in comparison to systemic drug concentration is caused by the mode of administration as inhaled dry powder, that deposits drug in the deeper part of the lung leading to an active drug concentration over 24 h after a once daily inhalation.
At 10 days after the first treatment, mean cGMP concentrations had returned close to the concentration observed at the pre-dosing day.

O=C(O)c1ccc(CCN(CCc2ccccc2OCc2ccc(-c3ccc(C(F)(F)F)cc3)cc2Cl)[C@H]2CCCc3nc(C(=O)O)ccc32)cc1 [example 2, (5S)-{[2-(4-Carboxyphenyl)ethyl][2-(2-{[3-chloro-4′-(trifluoromethyl)biphenyl-4-yl]methoxy}phenyl)-ethyl]amino}-5,6,7,8-tetrahydroquinoline-2-carboxylic acid]
cyclic guanosine monophosphate changes from baseline (480 μg once daily inhaled, 0 D 02 H 00 M): 1.73 ± 0.82 nmol/L | cyclic guanosine monophosphate changes from baseline (480 μg once daily inhaled, 0 D 04 H 00 M): 3.04 ± 1.39 nmol/L | cyclic guanosine monophosphate changes from baseline (480 μg once daily inhaled, 0 D 06 H 00 M): 3.33 ± 1.39 nmol/L | cyclic guanosine monophosphate changes from baseline (480 μg once daily inhaled, 0 D 08 H 00 M): 2.94 ± 1.38 nmol/L | cyclic guanosine monophosphate changes from baseline (480 μg once daily inhaled, 0 D 12 H 00 M): 2.10 ± 1.18 nmol/L | cyclic guanosine monophosphate changes from baseline (480 μg once daily inhaled, 0 D 15 H 00 M): 1.53 ± 1.50 nmol/L | cyclic guanosine monophosphate changes from baseline (480 μg once daily inhaled, 1 D 00 H 00 M): 0.84 ± 0.89 nmol/L | cyclic guanosine monophosphate changes from baseline (480 μg once daily inhaled, 2 D 00 H 00 M): 0.74 ± 1.59 nmol/L | cyclic guanosine monophosphate changes from baseline (480 μg once daily inhaled, 3 D 00 H 00 M): 1.00 ± 1.92 nmol/L | cyclic guanosine monophosphate changes from baseline (480 μg once daily inhaled, 4 D 00 H 00 M): 1.46 ± 1.24 nmol/L | cyclic guanosine monophosphate changes from baseline (480 μg once daily inhaled, 5 D 00 H 00 M): 1.50 ± 0.98 nmol/L | cyclic guanosine monophosphate changes from baseline (480 μg once daily inhaled, 6 D 00 H 00 M): 1.92 ± 1.21 nmol/L | cyclic guanosine monophosphate changes from baseline (480 μg once daily inhaled, 7 D 00 H 00 M): 1.68 ± 0.85 nmol/L | cyclic guanosine monophosphate changes from baseline (480 μg once daily inhaled, 7 D 02 H 00 M): 4.22 ± 2.29 nmol/L | cyclic guanosine monophosphate changes from baseline (480 μg once daily inhaled, 7 D 04 H 00 M): 5.39 ± 2.34 nmol/L | cyclic guanosine monophosphate changes from baseline (480 μg once daily inhaled, 7 D 06 H 00 M): 6.44 ± 2.26 nmol/L | cyclic guanosine monophosphate changes from baseline (480 μg once daily inhaled, 7 D 08 H 00 M): 5.19 ± 1.64 nmol/L | cyclic guanosine monophosphate changes from baseline (480 μg once daily inhaled, 7 D 12 H 00 M): 3.71 ± 1.79 nmol/L | cyclic guanosine monophosphate changes from baseline (480 μg once daily inhaled, 7 D 15 H 00 M): 3.04 ± 2.09 nmol/L | cyclic guanosine monophosphate changes from baseline (480 μg once daily inhaled, 8 D 00 H 00 M): 1.69 ± 2.65 nmol/L | cyclic guanosine monophosphate changes from baseline (480 μg once daily inhaled, 8 D 12 H 00 M): 0.69 ± 1.53 nmol/L | cyclic guanosine monophosphate changes from baseline (480 μg once daily inhaled, 9 D 00 H 00 M): 0.13 ± 1.97 nmol/L | cyclic guanosine monophosphate changes from baseline (480 μg once daily inhaled, 9 D 12 H 00 M): 1.10 ± 1.01 nmol/L | cyclic guanosine monophosphate changes from baseline (480 μg once daily inhaled, 10 D 00 H 00 M): -0.00 ± 0.64 nmol/L | cyclic guanosine monophosphate changes from baseline (480 μg, 0 D 00 H 00 M): 0.11 ± 1.10 nmol/L | cGMP, mean ± SD (480 μg, 0 D 00 H 00 M (baseline)): 5.51 ± 1.00 nmol/L | cGMP, mean ± SD (480 μg, 0 D 02 H 00 M): 7.24 ± 1.25 nmol/L | cGMP, mean ± SD (480 μg, 0 D 04 H 00 M): 8.56 ± 1.45 nmol/L | cGMP, mean ± SD (480 μg, 0 D 06 H 00 M): 8.84 ± 1.35 nmol/L | cGMP, mean ± SD (480 μg, 0 D 08 H 00 M): 8.46 ± 1.59 nmol/L | cGMP, mean ± SD (480 μg, 0 D 12 H 00 M): 7.61 ± 1.01 nmol/L | cGMP, mean ± SD (480 μg, 0 D 15 H 00 M): 7.04 ± 1.50 nmol/L | cGMP, mean ± SD (480 μg, 1 D 00 H 00 M): 6.36 ± 1.10 nmol/L | cGMP, mean ± SD (480 μg, 2 D 00 H 00 M): 6.26 ± 2.17 nmol/L | cGMP, mean ± SD (480 μg, 3 D 00 H 00 M (trough)): 6.51 ± 2.62 nmol/L | cGMP, mean ± SD (480 μg, 4 D 00 H 00 M (trough)): 6.97 ± 1.96 nmol/L | cGMP, mean ± SD (480 μg, 5 D 00 H 00 M (trough)): 7.01 ± 1.72 nmol/L | cGMP, mean ± SD (480 μg, 6 D 00 H 00 M (trough)): 7.43 ± 1.69 nmol/L | cGMP, mean ± SD (480 μg, 7 D 00 H 00 M (trough)): 7.19 ± 1.47 nmol/L | cGMP, mean ± SD (480 μg, 7 D 02 H 00 M): 9.73 ± 3.00 nmol/L | cGMP, mean ± SD (480 μg, 7 D 04 H 00 M): 10.90 ± 3.12 nmol/L | cGMP, mean ± SD (480 μg, 7 D 06 H 00 M): 11.96 ± 2.80 nmol/L | cGMP, mean ± SD (480 μg, 7 D 08 H 00 M): 10.70 ± 2.27 nmol/L | cGMP, mean ± SD (480 μg, 7 D 12 H 00 M): 9.22 ± 2.37 nmol/L | cGMP, mean ± SD (480 μg, 7 D 15 H 00 M): 8.56 ± 2.80 nmol/L | cGMP, mean ± SD (480 μg, 8 D 00 H 00 M): 7.20 ± 3.23 nmol/L | cGMP, mean ± SD (480 μg, 8 D 12 H 00 M): 6.20 ± 2.00 nmol/L | cGMP, mean ± SD (480 μg, 9 D 00 H 00 M): 5.64 ± 2.53 nmol/L | cGMP, mean ± SD (480 μg, 9 D 12 H 00 M): 6.61 ± 1.80 nmol/L | cGMP, mean ± SD (480 μg, 10 D 00 H 00 M): 5.51 ± 1.39 nmol/L | cGMP, mean ± SD (480 μg, −0 D 09 H 00 M (baseline)): 5.60 ± 1.08 nmol/L | cyclic guanosine monophosphate changes from baseline (480 μg, −0 D 09 H 00 M (pretreatment day)): 0.20 ± 1.59 nmol/L | cGMP, mean ± SD (480 μg, −0 D 12 H 00 M (baseline)): 5.62 ± 1.26 nmol/L | cyclic guanosine monophosphate changes from baseline (480 μg, −0 D 12 H 00 M (pretreatment day)): 0.22 ± 1.17 nmol/L | cGMP, mean ± SD (480 μg, −0 D 16 H 00 M (baseline)): 5.81 ± 1.09 nmol/L | cyclic guanosine monophosphate changes from baseline (480 μg, −0 D 16 H 00 M (pretreatment day)): 0.41 ± 0.96 nmol/L | cGMP, mean ± SD (480 μg, −0 D 18 H 00 M (baseline)): 5.61 ± 0.71 nmol/L | cyclic guanosine monophosphate changes from baseline (480 μg, −0 D 18 H 00 M (pretreatment day)): 0.21 ± 1.74 nmol/L | cGMP, mean ± SD (480 μg, −0 D 20 H 00 M (baseline)): 5.92 ± 0.83 nmol/L | cyclic guanosine monophosphate changes from baseline (480 μg, −0 D 20 H 00 M (pretreatment day)): 0.52 ± 0.95 nmol/L | cGMP, mean ± SD (480 μg, −0 D 22 H 00 M (baseline)): 6.57 ± 1.22 nmol/L | cyclic guanosine monophosphate changes from baseline (480 μg, −0 D 22 H 00 M (pretreatment day)): 1.17 ± 1.00 nmol/L | cGMP, mean ± SD (480 μg, −1 D 02 H 00 M (baseline)): 5.40 ± 1.41 nmol/L | cyclic guanosine monophosphate changes from baseline (1000 μg once daily inhaled, 0 D 02 H 00 M): 3.26 ± 2.04 nmol/L | cyclic guanosine monophosphate changes from baseline (1000 μg once daily inhaled, 0 D 04 H 00 M): 5.64 ± 2.54 nmol/L | cyclic guanosine monophosphate changes from baseline (1000 μg once daily inhaled, 0 D 06 H 00 M): 6.78 ± 2.79 nmol/L | cyclic guanosine monophosphate changes from baseline (1000 μg once daily inhaled, 0 D 08 H 00 M): 5.94 ± 2.65 nmol/L | cyclic guanosine monophosphate changes from baseline (1000 μg once daily inhaled, 0 D 12 H 00 M): 4.86 ± 2.91 nmol/L | cyclic guanosine monophosphate changes from baseline (1000 μg once daily inhaled, 0 D 15 H 00 M): 3.70 ± 2.59 nmol/L | cyclic guanosine monophosphate changes from baseline (1000 μg once daily inhaled, 1 D 00 H 00 M): 1.26 ± 1.98 nmol/L | cyclic guanosine monophosphate changes from baseline (1000 μg once daily inhaled, 2 D 00 H 00 M): 0.33 ± 1.99 nmol/L | cyclic guanosine monophosphate changes from baseline (1000 μg once daily inhaled, 3 D 00 H 00 M): 2.31 ± 2.68 nmol/L | cyclic guanosine monophosphate changes from baseline (1000 μg once daily inhaled, 4 D 00 H 00 M): 2.86 ± 2.63 nmol/L | cyclic guanosine monophosphate changes from baseline (1000 μg once daily inhaled, 5 D 00 H 00 M): 3.59 ± 2.51 nmol/L | cyclic guanosine monophosphate changes from baseline (1000 μg once daily inhaled, 6 D 00 H 00 M): 4.32 ± 2.82 nmol/L | cyclic guanosine monophosphate changes from baseline (1000 μg once daily inhaled, 7 D 00 H 00 M): 4.74 ± 2.98 nmol/L | cyclic guanosine monophosphate changes from baseline (1000 μg once daily inhaled, 7 D 02 H 00 M): 6.93 ± 2.99 nmol/L | cyclic guanosine monophosphate changes from baseline (1000 μg once daily inhaled, 7 D 04 H 00 M): 10.84 ± 2.91 nmol/L | cyclic guanosine monophosphate changes from baseline (1000 μg once daily inhaled, 7 D 06 H 00 M): 11.79 ± 3.70 nmol/L | cyclic guanosine monophosphate changes from baseline (1000 μg once daily inhaled, 7 D 08 H 00 M): 11.00 ± 4.58 nmol/L | cyclic guanosine monophosphate changes from baseline (1000 μg once daily inhaled, 7 D 12 H 00 M): 9.19 ± 5.26 nmol/L | cyclic guanosine monophosphate changes from baseline (1000 μg once daily inhaled, 7 D 15 H 00 M): 8.00 ± 4.41 nmol/L | cyclic guanosine monophosphate changes from baseline (1000 μg once daily inhaled, 8 D 00 H 00 M): 4.47 ± 3.81 nmol/L | cyclic guanosine monophosphate changes from baseline (1000 μg once daily inhaled, 8 D 12 H 00 M): 2.30 ± 3.05 nmol/L | cyclic guanosine monophosphate changes from baseline (1000 μg once daily inhaled, 9 D 00 H 00 M): 1.38 ± 2.59 nmol/L | cyclic guanosine monophosphate changes from baseline (1000 μg once daily inhaled, 9 D 12 H 00 M): 1.02 ± 2.24 nmol/L | cyclic guanosine monophosphate changes from baseline (1000 μg once daily inhaled, 10 D 00 H 00 M): 1.42 ± 2.87 nmol/L | cyclic guanosine monophosphate changes from baseline (1000 μg, 0 D 00 H 00 M): -0.11 ± 1.62 nmol/L | cGMP, mean ± SD (1000 μg, 0 D 00 H 00 M (baseline)): 4.91 ± 1.27 nmol/L | cGMP, mean ± SD (1000 μg, 0 D 02 H 00 M): 8.17 ± 1.07 nmol/L | cGMP, mean ± SD (1000 μg, 0 D 04 H 00 M): 10.56 ± 1.47 nmol/L | cGMP, mean ± SD (1000 μg, 0 D 06 H 00 M): 11.69 ± 1.86 nmol/L | cGMP, mean ± SD (1000 μg, 0 D 08 H 00 M): 10.86 ± 1.66 nmol/L | cGMP, mean ± SD (1000 μg, 0 D 12 H 00 M): 9.77 ± 2.11 nmol/L | cGMP, mean ± SD (1000 μg, 0 D 15 H 00 M): 8.61 ± 1.63 nmol/L | cGMP, mean ± SD (1000 μg, 1 D 00 H 00 M): 6.17 ± 1.05 nmol/L | cGMP, mean ± SD (1000 μg, 2 D 00 H 00 M): 5.24 ± 1.28 nmol/L | cGMP, mean ± SD (1000 μg, 3 D 00 H 00 M (trough)): 7.22 ± 2.04 nmol/L | cGMP, mean ± SD (1000 μg, 4 D 00 H 00 M (trough)): 7.77 ± 1.87 nmol/L
